Consider 2 molecules from patent US9796990B2 (priority 2011, dated 2017).

In brackets after ≈: the same amount, converted by molar mass. Like-named read-outs stand apart in the source and are kept apart here.

The test system of one data set is Ceriodaphnia dubia. Kind of data set: whole plant or invertebrate. To be noted: read-out: EC 50, effective concentration for 50% survival.
Data set [1] deals with Bluegill (Lepomis macrochirus). To be noted: in vivo; cited from earlier work.

Turning to `CCOP(=S)(OCC)Oc1cc(C)nc(C(C)C)n1` [Untreated diazinon, diazinon], the EC50 in the data set on Ceriodaphnia dubia (24 h) was found to be 0.389 ng/mL (≈ 1.28 nM); in the data set with Ceriodaphnia dubia (48 h), 0.195 ng/mL (≈ 0.641 nM).
Turning to `CCOP(O)(=S)OCC` [diethyl thiophosphoric acid], in data set [1], the “toxicity compared with the parent compound chlorpyriphos” value is on record as “considerably less toxic than the parent compound”.
